In ChEMBL document CHEMBL5291721, “A preclinical secondary pharmacology resource illuminates target-adverse drug reaction associations of marketed drugs” (Nat Commun, 2023):

What was measured:
[1] = biological target: 5-hydroxytryptamine receptor 2B (Homo sapiens, UniProt P41595); type: functional, cell-based
Histamine H2 receptor = Histamine H2 receptor (Homo sapiens, UniProt P25021); type: functional, cell-based
Progesterone receptor = biological target: T1, Progesterone receptor (Homo sapiens, UniProt P06401); type: functional
T1 sequence (P06401 whole entry): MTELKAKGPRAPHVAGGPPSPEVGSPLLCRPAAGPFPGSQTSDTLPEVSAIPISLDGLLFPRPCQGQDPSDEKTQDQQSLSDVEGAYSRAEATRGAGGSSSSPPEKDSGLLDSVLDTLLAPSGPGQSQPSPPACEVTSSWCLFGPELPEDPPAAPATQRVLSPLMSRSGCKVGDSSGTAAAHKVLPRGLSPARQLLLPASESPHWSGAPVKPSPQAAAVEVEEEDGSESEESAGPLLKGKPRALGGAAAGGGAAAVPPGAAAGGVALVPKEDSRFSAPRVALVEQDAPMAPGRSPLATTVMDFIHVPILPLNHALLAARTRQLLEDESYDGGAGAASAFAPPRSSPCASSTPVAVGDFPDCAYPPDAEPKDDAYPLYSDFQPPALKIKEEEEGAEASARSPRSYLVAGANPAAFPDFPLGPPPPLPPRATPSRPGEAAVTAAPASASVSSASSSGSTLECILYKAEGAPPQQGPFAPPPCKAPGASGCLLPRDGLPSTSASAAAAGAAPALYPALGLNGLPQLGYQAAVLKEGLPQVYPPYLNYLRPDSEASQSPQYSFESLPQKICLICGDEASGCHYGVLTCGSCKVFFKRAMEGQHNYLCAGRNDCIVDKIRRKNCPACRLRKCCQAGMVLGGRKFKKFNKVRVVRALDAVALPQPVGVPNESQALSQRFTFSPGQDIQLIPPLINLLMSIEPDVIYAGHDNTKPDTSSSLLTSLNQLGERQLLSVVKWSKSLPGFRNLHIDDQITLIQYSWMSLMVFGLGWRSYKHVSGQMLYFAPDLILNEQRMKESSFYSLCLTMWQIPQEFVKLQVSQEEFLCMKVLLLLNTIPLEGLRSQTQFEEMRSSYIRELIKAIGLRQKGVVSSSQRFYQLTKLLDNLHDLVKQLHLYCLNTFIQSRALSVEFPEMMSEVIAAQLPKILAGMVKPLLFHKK

Mu-type opioid receptor = Mu-type opioid receptor (Homo sapiens, UniProt P35372)
Chain of Mu-type opioid receptor (P35372 whole entry): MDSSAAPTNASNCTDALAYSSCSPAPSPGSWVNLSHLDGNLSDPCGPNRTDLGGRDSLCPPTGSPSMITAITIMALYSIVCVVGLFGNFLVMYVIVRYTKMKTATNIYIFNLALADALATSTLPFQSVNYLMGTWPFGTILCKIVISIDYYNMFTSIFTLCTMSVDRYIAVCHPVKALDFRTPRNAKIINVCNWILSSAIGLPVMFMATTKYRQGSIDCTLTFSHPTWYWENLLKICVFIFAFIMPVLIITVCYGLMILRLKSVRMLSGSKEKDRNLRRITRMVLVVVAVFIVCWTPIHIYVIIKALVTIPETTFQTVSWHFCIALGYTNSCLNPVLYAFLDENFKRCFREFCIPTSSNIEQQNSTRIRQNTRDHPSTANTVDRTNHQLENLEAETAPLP

[2] = biological target: T2, Alpha-1A adrenergic receptor (Homo sapiens, UniProt P35348); type: functional, cell-based
T2 sequence (P35348 whole entry): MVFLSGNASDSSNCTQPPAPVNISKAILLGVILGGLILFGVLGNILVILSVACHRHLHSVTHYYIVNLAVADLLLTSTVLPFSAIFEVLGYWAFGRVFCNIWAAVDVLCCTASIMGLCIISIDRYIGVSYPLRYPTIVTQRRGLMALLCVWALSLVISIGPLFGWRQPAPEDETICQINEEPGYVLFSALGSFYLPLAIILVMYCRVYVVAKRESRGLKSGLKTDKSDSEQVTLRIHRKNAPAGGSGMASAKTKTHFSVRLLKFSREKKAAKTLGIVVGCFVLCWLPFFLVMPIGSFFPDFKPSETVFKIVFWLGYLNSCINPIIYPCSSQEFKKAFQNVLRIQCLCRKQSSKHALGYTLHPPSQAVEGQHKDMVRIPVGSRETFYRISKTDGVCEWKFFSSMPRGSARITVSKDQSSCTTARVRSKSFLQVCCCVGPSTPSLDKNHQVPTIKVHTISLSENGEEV

Histamine H3 receptor = Histamine H3 receptor (Homo sapiens, UniProt Q9Y5N1)
Chain of Histamine H3 receptor (Q9Y5N1 whole entry): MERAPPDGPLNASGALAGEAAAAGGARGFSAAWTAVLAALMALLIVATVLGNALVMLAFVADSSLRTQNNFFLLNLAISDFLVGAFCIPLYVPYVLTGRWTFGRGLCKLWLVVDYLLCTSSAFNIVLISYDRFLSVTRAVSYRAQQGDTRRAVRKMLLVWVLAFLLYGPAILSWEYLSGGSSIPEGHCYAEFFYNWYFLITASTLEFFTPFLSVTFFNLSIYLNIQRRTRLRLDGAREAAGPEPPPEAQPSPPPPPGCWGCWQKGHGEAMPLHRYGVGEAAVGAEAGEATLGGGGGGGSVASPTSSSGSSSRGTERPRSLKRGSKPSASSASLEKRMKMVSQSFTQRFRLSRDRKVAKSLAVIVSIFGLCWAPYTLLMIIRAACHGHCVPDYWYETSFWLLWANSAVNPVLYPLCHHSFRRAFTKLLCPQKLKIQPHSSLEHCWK

[3] = biological target: Voltage-dependent L-type calcium channel subunit alpha-1C (Rattus norvegicus, UniProt P22002); type: functional
Chain of Voltage-dependent L-type calcium channel subunit alpha-1C (P22002 whole entry): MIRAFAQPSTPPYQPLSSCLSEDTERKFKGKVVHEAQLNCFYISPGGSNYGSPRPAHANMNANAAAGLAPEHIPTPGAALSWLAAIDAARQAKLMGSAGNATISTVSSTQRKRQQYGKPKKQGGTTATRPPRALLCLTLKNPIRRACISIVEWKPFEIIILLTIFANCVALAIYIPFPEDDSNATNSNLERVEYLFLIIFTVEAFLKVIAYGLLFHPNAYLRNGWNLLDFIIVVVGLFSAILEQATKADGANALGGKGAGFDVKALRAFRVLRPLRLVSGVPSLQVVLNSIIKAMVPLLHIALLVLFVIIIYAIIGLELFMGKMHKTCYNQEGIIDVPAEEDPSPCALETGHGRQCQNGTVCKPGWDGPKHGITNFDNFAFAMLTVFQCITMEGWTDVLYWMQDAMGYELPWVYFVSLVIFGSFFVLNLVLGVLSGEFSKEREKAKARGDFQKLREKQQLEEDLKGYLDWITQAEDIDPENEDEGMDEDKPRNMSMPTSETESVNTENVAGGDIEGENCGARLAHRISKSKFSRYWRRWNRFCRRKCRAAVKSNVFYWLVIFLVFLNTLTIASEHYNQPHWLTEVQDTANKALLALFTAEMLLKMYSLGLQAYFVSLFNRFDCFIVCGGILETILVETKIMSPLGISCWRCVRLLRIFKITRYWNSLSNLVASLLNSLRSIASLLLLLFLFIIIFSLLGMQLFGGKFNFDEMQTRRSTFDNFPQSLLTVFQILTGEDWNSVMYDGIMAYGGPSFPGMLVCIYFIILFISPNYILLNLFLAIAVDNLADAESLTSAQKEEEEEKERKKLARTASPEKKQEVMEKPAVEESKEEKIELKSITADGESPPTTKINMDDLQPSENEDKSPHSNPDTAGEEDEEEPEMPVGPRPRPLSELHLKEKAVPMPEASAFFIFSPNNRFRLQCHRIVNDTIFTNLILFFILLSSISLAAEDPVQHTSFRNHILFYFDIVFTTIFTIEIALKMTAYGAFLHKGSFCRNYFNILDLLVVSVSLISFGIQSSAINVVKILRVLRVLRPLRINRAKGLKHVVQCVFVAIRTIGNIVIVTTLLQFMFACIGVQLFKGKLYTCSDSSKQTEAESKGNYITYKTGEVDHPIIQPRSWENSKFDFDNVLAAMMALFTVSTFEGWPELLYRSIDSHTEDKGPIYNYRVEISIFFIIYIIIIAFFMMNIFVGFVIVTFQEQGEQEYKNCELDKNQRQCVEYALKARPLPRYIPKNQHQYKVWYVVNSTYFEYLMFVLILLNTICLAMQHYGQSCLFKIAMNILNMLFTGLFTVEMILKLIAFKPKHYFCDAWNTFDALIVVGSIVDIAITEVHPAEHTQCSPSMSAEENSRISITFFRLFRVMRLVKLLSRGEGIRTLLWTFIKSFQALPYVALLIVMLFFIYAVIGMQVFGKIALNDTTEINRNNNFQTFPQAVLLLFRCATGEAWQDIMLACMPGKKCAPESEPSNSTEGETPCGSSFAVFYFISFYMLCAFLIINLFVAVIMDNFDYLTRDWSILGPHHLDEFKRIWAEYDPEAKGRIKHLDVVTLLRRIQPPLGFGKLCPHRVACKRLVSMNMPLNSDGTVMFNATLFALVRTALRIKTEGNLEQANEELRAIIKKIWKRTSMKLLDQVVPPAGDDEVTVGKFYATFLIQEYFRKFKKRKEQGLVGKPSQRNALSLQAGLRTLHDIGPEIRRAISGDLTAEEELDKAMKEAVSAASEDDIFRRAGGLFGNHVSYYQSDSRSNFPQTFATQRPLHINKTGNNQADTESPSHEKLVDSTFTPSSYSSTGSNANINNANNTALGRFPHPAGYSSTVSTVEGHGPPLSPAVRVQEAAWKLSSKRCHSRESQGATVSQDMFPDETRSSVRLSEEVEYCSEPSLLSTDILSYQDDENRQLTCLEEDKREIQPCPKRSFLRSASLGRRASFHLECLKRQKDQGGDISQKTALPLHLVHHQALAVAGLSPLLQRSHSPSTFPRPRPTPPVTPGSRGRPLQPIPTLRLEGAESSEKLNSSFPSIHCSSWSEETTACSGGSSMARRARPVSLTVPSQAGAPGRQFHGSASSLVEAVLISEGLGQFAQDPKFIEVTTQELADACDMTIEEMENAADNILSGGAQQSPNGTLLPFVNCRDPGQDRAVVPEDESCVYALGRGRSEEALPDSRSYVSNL
Also: assay procedure not described here.

Chain of 5-hydroxytryptamine receptor 2B (P41595 whole entry): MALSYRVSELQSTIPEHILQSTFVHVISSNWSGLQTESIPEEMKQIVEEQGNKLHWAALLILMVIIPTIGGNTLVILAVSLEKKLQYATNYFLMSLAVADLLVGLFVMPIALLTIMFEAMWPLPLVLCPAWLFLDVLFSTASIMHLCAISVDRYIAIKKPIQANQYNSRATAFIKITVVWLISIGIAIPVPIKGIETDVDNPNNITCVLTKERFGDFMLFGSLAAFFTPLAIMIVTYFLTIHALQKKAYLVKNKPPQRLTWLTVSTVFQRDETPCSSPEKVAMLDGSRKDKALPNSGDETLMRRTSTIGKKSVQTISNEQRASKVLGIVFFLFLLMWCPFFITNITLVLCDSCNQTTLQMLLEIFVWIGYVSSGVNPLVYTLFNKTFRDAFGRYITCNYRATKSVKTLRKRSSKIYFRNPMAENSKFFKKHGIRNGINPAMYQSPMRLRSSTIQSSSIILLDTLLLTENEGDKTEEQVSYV
Chain of Histamine H2 receptor (P25021 whole entry): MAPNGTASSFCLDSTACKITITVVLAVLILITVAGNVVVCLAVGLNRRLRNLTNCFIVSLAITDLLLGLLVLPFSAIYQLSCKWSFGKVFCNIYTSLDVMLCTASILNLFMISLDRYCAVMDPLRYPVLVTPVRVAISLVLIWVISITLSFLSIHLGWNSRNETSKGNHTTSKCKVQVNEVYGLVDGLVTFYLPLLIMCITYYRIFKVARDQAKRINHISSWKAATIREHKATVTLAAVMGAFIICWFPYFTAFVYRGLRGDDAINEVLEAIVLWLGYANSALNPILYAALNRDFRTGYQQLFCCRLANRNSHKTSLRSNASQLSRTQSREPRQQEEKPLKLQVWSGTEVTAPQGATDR

Row | Compound | AC50 [1] [µM] | AC50 (Histamine H2 receptor) [µM] | AC50 (Progesterone receptor) [µM] | AC50 (Mu-type opioid receptor) [µM] | AC50 [2] [µM] | AC50 (Histamine H3 receptor) [µM] | AC50 [3] [µM]
1 | COC(=O)[C@H](c1ccccc1Cl)N1CCc2sccc2C1 [CLOPIDOGREL] | > 30 | > 30 | > 30 | 13 | > 30 | > 30 | > 30
2 | O=C1NC(=O)C(c2ccccc2)(c2ccccc2)N1 [PHENYTOIN] | > 30 | > 10 | > 30 | > 30 | > 30 | > 30 | > 10
3 | NC(=O)c1ncn([C@@H]2O[C@H](CO)[C@@H](O)[C@H]2O)n1 [RIBAVIRIN] | > 10 | > 10 | > 10 | > 30 | > 30 | > 10 | > 10
4 | CCCN(CCC)CCc1cccc2c1CC(=O)N2 [ROPINIROLE] | 2.76 | > 10 | > 30 | 9.67 | > 30 | 9.25 | > 10
5 | CC(C)N(CCCCOCC(=O)NS(C)(=O)=O)c1cnc(-c2ccccc2)c(-c2ccccc2)n1 [SELEXIPAG] | > 30 | > 30 | > 30 | > 30 | 7.2 | > 30 | > 30
